In the Kinase Knowledgebase extract (Sharma et al. 2016):

Molecular target: EGFR (murine) (UniProt P00533)
Settings: nih3t3/c7

EGFR (murine), sequence (P00533 whole entry, looked up): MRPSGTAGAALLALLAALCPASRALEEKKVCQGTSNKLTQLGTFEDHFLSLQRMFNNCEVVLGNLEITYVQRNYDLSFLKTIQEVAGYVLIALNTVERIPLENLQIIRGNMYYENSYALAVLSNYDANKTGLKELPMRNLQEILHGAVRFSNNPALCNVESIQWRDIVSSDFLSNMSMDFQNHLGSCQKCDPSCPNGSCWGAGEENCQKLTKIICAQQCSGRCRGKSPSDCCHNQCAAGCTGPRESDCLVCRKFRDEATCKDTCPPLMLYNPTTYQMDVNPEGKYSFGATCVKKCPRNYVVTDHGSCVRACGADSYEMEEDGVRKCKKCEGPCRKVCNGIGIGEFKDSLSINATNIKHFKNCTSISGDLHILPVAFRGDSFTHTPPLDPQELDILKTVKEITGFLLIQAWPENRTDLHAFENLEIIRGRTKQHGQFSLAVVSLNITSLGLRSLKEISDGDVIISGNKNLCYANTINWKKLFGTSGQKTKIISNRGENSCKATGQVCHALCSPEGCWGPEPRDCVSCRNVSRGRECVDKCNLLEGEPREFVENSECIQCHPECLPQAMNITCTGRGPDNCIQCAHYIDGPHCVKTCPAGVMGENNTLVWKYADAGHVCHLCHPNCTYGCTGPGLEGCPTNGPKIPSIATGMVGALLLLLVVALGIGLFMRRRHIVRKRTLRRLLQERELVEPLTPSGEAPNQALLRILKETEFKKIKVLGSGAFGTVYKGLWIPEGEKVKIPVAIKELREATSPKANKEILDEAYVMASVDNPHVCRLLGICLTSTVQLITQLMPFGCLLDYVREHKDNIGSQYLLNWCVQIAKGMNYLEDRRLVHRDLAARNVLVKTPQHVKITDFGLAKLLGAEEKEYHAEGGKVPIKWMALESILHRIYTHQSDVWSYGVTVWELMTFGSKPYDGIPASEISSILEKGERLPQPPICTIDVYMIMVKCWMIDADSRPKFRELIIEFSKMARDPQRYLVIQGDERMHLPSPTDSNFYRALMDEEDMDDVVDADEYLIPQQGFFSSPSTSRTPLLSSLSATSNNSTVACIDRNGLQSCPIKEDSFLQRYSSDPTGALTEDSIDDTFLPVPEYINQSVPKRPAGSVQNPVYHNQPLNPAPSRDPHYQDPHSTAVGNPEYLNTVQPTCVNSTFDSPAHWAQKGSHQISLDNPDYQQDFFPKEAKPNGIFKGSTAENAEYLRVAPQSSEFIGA

| SMILES | IC50 [µM] |
| --- | --- |
| Cc1c[nH]c(/C=C2\C(=O)Nc3ccccc32)c1CC(=O)O | > 100 |
| COC(=O)CCc1c[nH]c(/C=C2\C(=O)Nc3cc(OC)c(OC)cc32)c1C | > 50 |
| CC(=O)c1[nH]c(/C=C2\C(=O)Nc3ccccc32)c(C)c1C | > 100 |
| CCc1c(/C=C2\C(=O)Nc3ccccc32)[nH]c(C(=O)O)c1C | > 100 |
| Cc1[nH]c(/C=C2\C(=O)Nc3ncccc32)c(C)c1CCC(=O)O | > 50 |
| Cc1c(CCC(=O)O)c[nH]c1/C=C1\C(=O)Nc2ncccc21 | > 25 |
| Cc1cc(C)c(/C=C2\C(=O)Nc3ncccc32)[nH]1 | > 100 |
| COC(=O)Cc1c(Cl)[nH]c(/C=C2\C(=O)Nc3ccccc32)c1C(=O)OC | > 50 |
| CCOC(=O)c1c(C)[nH]c(/C=C2\C(=O)Nc3ccc(Br)cc32)c1C | > 25 |
| COC(=O)CCc1c[nH]c(/C=C2\C(=O)Nc3ccccc32)c1C | > 100 |

Next, values leading:

| IC50 [µM] | SMILES |
| --- | --- |
| 12.5 | O=C(O)CCc1c(/C=C2\C(=O)Nc3ncccc32)[nH]c2c1CCCC2 |
| 38.2 | Cc1c(/C=C2\C(=O)Nc3ncccc32)[nH]c2c1CCCC2 |
| > 10 | CCOC(=O)c1c(C)[nH]c(/C=C2\C(=O)Nc3ccc(NC(=O)c4ccc(C(=O)OC)cc4)cc32)c1C |
| > 10 | CCOC(=O)c1[nH]c(/C=C2\C(=O)Nc3ccccc32)c(C(C)=O)c1C |
| > 10 | CCOC(=O)CCc1c(C(=O)OCC)[nH]c(/C=C2\C(=O)Nc3ccccc32)c1CC(=O)OCC |
| 29.9 | O=C1Nc2ncccc2/C1=C/c1cc2c([nH]1)CCCC2 |
